According to ChEMBL document CHEMBL3352610, “Discovery of potent and selective GIRK1/2 modulators via 'molecular switches' within a series of 1-(3-cyclopropyl-1-phenyl-1H-pyrazol-5-yl)ureas” (Bioorg Med Chem Lett, 2014):
The source made the active and inactive calls. The calls are words filed in the database; no cut-off is given here.

What was measured:
Kir3.1/Kir3.2 = target: T1, Kir3.1/Kir3.2 (Homo sapiens, UniProt P48051+P48549); experiment: Activation of GIRK1/2 (unknown origin) by thallium-flux based assay; type: protein-complex assay
T1 sequence (P48549 whole entry): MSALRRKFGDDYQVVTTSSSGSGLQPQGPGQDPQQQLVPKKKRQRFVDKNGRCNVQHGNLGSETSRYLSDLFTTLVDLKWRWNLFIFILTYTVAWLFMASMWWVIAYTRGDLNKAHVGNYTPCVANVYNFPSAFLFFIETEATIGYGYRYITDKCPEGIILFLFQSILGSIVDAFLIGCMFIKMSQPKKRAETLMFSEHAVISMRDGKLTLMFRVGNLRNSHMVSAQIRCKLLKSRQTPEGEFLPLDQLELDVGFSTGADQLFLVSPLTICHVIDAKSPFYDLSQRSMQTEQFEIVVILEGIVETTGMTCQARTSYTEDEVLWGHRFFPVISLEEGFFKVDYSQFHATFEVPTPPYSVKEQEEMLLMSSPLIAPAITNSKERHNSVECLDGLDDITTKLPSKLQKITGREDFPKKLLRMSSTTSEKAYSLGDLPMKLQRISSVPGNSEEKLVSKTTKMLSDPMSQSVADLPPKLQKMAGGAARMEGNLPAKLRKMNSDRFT
T1 sequence (P48051 whole entry): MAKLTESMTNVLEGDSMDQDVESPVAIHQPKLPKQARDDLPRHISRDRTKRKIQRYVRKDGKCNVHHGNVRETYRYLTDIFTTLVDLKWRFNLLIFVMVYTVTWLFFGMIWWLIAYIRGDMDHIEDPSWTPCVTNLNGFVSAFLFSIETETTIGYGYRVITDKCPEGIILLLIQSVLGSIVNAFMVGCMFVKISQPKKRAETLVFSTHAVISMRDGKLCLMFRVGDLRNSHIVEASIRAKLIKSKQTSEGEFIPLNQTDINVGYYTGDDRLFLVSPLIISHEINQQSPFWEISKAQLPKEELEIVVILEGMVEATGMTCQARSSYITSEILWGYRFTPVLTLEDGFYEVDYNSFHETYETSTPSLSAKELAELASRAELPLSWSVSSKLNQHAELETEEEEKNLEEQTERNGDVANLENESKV

[1] = target: Kir3.1/Kir3.4 (Homo sapiens) (UniProt P48549+P48544); experiment: Activation of GIRK1/4 (unknown origin) by thallium-flux based assay relative to ML297; type: protein-complex assay
Kir3.1/Kir3.4 = target: T2, Kir3.1/Kir3.4 (Homo sapiens, UniProt P48544+P48549); experiment: Activation of GIRK1/4 (unknown origin) by thallium-flux based assay; type: protein-complex assay
T2 sequence (P48549 whole entry): T1 sequence (P48549 whole entry)
T2 sequence (P48544 whole entry): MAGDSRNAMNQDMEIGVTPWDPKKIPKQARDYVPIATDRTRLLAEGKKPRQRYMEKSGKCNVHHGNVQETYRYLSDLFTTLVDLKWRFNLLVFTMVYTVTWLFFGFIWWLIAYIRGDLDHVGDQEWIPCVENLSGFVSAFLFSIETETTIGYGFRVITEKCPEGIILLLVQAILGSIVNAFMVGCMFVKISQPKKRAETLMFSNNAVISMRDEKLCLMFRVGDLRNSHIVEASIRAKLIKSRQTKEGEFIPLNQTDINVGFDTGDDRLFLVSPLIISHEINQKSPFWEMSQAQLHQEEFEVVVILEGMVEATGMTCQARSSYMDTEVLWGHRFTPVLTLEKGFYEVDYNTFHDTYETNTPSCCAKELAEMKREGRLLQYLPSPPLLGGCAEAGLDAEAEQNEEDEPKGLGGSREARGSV

[2] = target: Kir3.1/Kir3.2 (Homo sapiens) (UniProt P48549+P48051); experiment: Activation of GIRK1/2 (unknown origin) by thallium-flux based assay relative to ML297; type: protein-complex assay
[3] = Stability in rat microsomes assessed as compound remaining measured after 90 mins; type: ADME, Microsome; conditions: read-out: Stability
[4] = target: Kir3.2/Kir3.3 (Homo sapiens) (UniProt P48051+Q92806); experiment: Modulation of GIRK2/3 (unknown origin) by thallium-flux based assay; type: protein-complex assay

Row | EC50 (Kir3.1/Kir3.2) | Efficacy [1] | EC50 (Kir3.1/Kir3.4) | Efficacy [2] | remaining at […] [3] | Activity [4] | Structure (SMILES)
1 | 4900 nM | 112% | 4900 nM | 100% |  |  | CC1CC1c1cc(NC(=O)Nc2ccc(F)c(F)c2)n(CC(F)(F)F)n1 (stereo unspecified)
2 |  |  |  |  | 45% | inactive | Cc1cc(NC(=O)Nc2ccc(F)c(F)c2)n(-c2ccccc2)n1
3 | 310 nM | 100% | 1000 nM | 101% |  |  | CC1CC1c1cc(NC(=O)Nc2cccc(F)c2)n(CC(F)(F)F)n1 (stereo unspecified)

Continued, compound first:

Row | Structure (SMILES) | EC50 (Kir3.1/Kir3.2) | Efficacy [1] | EC50 (Kir3.1/Kir3.4) | Efficacy [2] | remaining at […] [3] | Activity [4]
4 | CC1CC1c1cc(NC(=O)Nc2ccc(Cl)cc2)n(CC(F)(F)F)n1 (stereo unspecified) | 150 nM | 100% | 1800 nM | 66% |  | 
5 | CC1CC1c1cc(NC(=O)Nc2ccc(C(F)(F)F)cc2)n(CC(F)(F)F)n1 (stereo unspecified) | 310 nM | 100% | 2000 nM | 70% |  | 
6 | Cc1ccc(NC(=O)Nc2cc(C3CC3C)nn2CC(F)(F)F)cc1 (stereo unspecified) | 270 nM | 100% | 2300 nM | 67% |  | 
7 | Cc1cc(NC(=O)Nc2cc(C3CC3C)nn2CC(F)(F)F)ccc1F (stereo unspecified) | 700 nM | 35% | 1200 nM | 81% |  | 
